Results reported in patent publication US6982348B2, “Aminoethanol derivatives” (Takeda Pharmaceutical Company Limited, priority 2001, dated 2006).

| melting point | SMILES |
| --- | --- |
| 174 to 175 °C | O=C(N[C@H](Cc1ccc(C(F)(F)F)cc1)[C@@H](O)c1ccc(F)cc1)c1ccc2ccccc2c1 (racemic) [Example 63, N-((1RS,2SR)-2-(4-fluorophenyl)-2-hydroxy-1-((4-(trifluoromethyl)phenyl)methyl)ethyl)-2-naphthalenecarboxamide] |
| 170 to 171 °C | COCc1ccc(C(=O)N[C@H](Cc2ccc(C(F)(F)F)cc2)[C@@H](O)c2ccc(F)cc2)c2ccccc12 (racemic) [Example 65, N-((1RS,2SR)-2-(4-fluorophenyl)-2-hydroxy-1-((4-(trifluoromethyl)phenyl)methyl)ethyl)-4-((methyloxy)methyl)-1-naphthalenecarboxamide] |
| 227 to 228 °C | O=C(N[C@H](Cc1ccc(C(F)(F)F)cc1)[C@@H](O)c1ccc(F)cc1)c1cccc2cc3ccccc3cc12 (racemic) [Example 66, N-((1RS,2SR)-2-(4-fluorophenyl)-2-hydroxy-1-((4-(trifluoromethyl)phenyl)methyl)ethyl)-1-anthracenecarboxamide] |
| 193 to 194 °C | O=C(N[C@H](Cc1ccc(C(F)(F)F)cc1)[C@@H](O)c1ccc(F)cc1)c1ccccc1 (racemic) [Example 68, N-[(1RS,2SR)-2-(4-fluorophenyl)-2-hydroxy-1-[4-(trifluoromethyl)benzyl]ethyl]benzamide] |
| 173 to 174 °C | O=C(Cc1ccccc1)N[C@H](Cc1ccc(C(F)(F)F)cc1)[C@@H](O)c1ccc(F)cc1 (racemic) [Example 69, N-((1RS,2SR)-2-(4-fluorophenyl)-2-hydroxy-1-((4-(trifluoromethyl)phenyl)methyl)ethyl)-2-phenylacetamide] |
| 162 to 163 °C | O=C(N[C@H](Cc1ccc(C(F)(F)F)cc1)[C@@H](O)c1ccc(F)cc1)C(F)(F)F (racemic) [Example 70, N-[(1RS,2SR)-2-(4-fluorophenyl)-2-hydroxy-1-[4-(trifluoromethyl)benzyl]ethyl]-2,2,2-trifluoroacetamide] |
| 180 to 181 °C | O=C(N[C@H](Cc1ccc(C(F)(F)F)cc1)[C@@H](O)c1ccc(F)cc1)c1ccc2c(c1)OCO2 (racemic) [Example 72, N-((1RS,2SR)-2-(4-fluorophenyl)-2-hydroxy-1-((4-(trifluoromethyl)phenyl)methyl)ethyl)-1,3-benzodioxole-5-carboxamide] |
| 134 to 136 °C | Cc1oc(C(C)C)c(C(=O)N[C@H](Cc2ccc(C(F)(F)F)cc2)[C@@H](O)c2ccc(F)cc2)c1-c1ccc(F)cc1 (racemic) [Example 73, 4-(4-fluorophenyl)-N-[(1RS,2SR)-2-(4-fluorophenyl)-2-hydroxy-1-[4-(trifluoromethyl)benzyl]ethyl]-5-methyl-2-(1-methylethyl)furan-3-carboxamide] |
| 165 to 166 °C | O=C(N[C@H](Cc1ccc(C(F)(F)F)cc1)[C@@H](O)c1ccc(F)cc1)c1cccc(-c2ccccc2)c1 (racemic) [Example 74, N-((1RS,2SR)-2-(4-fluorophenyl)-2-hydroxy-1-((4-(trifluoromethyl)phenyl)methyl)ethyl)[1,1′-biphenyl]-3-carboxamide] |
| 169 to 170 °C | CN(C)c1ccc(C(=O)N[C@H](Cc2ccc(C(F)(F)F)cc2)[C@@H](O)c2ccc(F)cc2)c2ccccc12 (racemic) [Example 75, 4-(dimethylamino)-N-((1RS,2SR)-2-(4-fluorophenyl)-2-hydroxy-1-((4-(trifluoromethyl)phenyl)methyl)ethyl)-1-naphthalenecarboxamide] |
| 220 to 221 °C | O=C(N[C@H](Cc1ccc(C(F)(F)F)cc1)[C@@H](O)c1ccc(F)cc1)c1cc(Cl)cc2ccccc12 (racemic) [Example 76, 3-chloro-N-[(1RS,2SR)-2-(4-fluorophenyl)-2-hydroxy-1-[4-(trifluoromethyl)benzyl]ethyl]naphthalene-1-carboxamide] |
| 121 to 122 °C | O=C(N[C@H](Cc1ccc(C(F)(F)F)cc1)[C@@H](O)c1ccc(F)cc1)c1cccc2c1OCC2 (racemic) [Example 77, N-((1RS,2SR)-2-(4-fluorophenyl)-2-hydroxy-1-((4-(trifluoromethyl)phenyl)methyl)ethyl)-2,3-dihydro-1-benzofuran-7-carboxamide] |
| 151 to 152 °C | O=C(CBr)N[C@H](Cc1ccc(C(F)(F)F)cc1)[C@@H](O)c1ccc(F)cc1 (racemic) [Example 78, 2-bromo-N-((1RS,2SR)-2-(4-fluorophenyl)-2-hydroxy-1-((4-(trifluoromethyl)phenyl)methyl)ethyl)acetamide] |
| 171 to 172 °C | CCCCc1ccc(C(=O)N[C@H](Cc2ccc(C(F)(F)F)cc2)[C@@H](O)c2ccc(F)cc2)cc1 (racemic) [Example 79, 4-butyl-N-((1RS,2SR)-2-(4-fluorophenyl)-2-hydroxy-1-((4-(trifluoromethyl)phenyl)methyl)ethyl)benzamide] |
| 83 to 84 °C | O=C(N[C@H](Cc1ccc(C(F)(F)F)cc1)[C@@H](O)c1ccc(F)cc1)c1cccc2cccnc12 (racemic) [Example 80, N-((1RS,2SR)-2-(4-fluorophenyl)-2-hydroxy-1-((4-(trifluoromethyl)phenyl)methyl)ethyl)-8-quinolinecarboxamide] |
| 228 to 229 °C | O=C(N[C@H](Cc1ccc(C(F)(F)F)cc1)[C@@H](O)c1ccc(F)cc1)c1ccc(C(F)(F)F)cc1 (racemic) [Example 81, N-((1RS,2SR)-2-(4-fluorophenyl)-2-hydroxy-1-((4-(trifluoromethyl)phenyl)methyl)ethyl)-4-(trifluoromethyl)benzamide] |
| 186 to 187 °C | O=C(Cc1cccc2ccccc12)N[C@H](Cc1ccc(C(F)(F)F)cc1)[C@@H](O)c1ccc(F)cc1 (racemic) [Example 82, N-((1RS,2SR)-2-(4-fluorophenyl)-2-hydroxy-1-((4-(trifluoromethyl)phenyl)methyl)ethyl)-2-(1-naphthalenyl)acetamide] |
| 157 to 158 °C | CCOc1ccc2ccccc2c1C(=O)N[C@H](Cc1ccc(C(F)(F)F)cc1)[C@@H](O)c1ccc(F)cc1 (racemic) [Example 83, 2-(ethyloxy)-N-((1RS,2SR)-2-(4-fluorophenyl)-2-hydroxy-1-((4-(trifluoromethyl)phenyl)methyl)ethyl)-1-naphthalenecarboxamide] |
| 251 to 252 °C | O=C(N[C@H](Cc1ccc(C(F)(F)F)cc1)[C@@H](O)c1ccc(F)cc1)c1c2ccccc2cc2ccccc12 (racemic) [Example 84, N-((1RS,2SR)-2-(4-fluorophenyl)-2-hydroxy-1-((4-(trifluoromethyl)phenyl)methyl)ethyl)-9-anthracenecarboxamide] |
| 185 to 186 °C | O=C(N[C@H](Cc1ccc(C(F)(F)F)cc1)[C@@H](O)c1ccc(F)cc1)c1cccc2c1C(=O)c1ccccc1-2 (racemic) [Example 85, N-((1RS,2SR)-2-(4-fluorophenyl)-2-hydroxy-1-((4-(trifluoromethyl)phenyl)methyl)ethyl)-9-oxo-9H-fluorene-1-carboxamide] |
| 150 to 151 °C | O=C(N[C@H](Cc1ccc(C(F)(F)F)cc1)[C@@H](O)c1ccc(F)cc1)c1cc(C(F)(F)F)cc(C(F)(F)F)c1 (racemic) [Example 86, N-((1RS,2SR)-2-(4-fluorophenyl)-2-hydroxy-1-((4-(trifluoromethyl)phenyl)methyl)ethyl)-3,5-bis(trifluoromethyl)benzamide] |
